Laboratory results as given in patent US20250312365A1, “METHODS FOR INHIBITION OF SQUAMOUS CARCINOMA CELLS USING CERAMIDE MODULATORS” (The Trustees of Indiana University, priority 2024, published 2025).
Entries after “also recorded” stand apart in the source; their conditions may differ.

What was measured:
[1] = test system: human gingival squamous carcinoma cells (OECM1); test: Cell viability/proliferation assay (WST-1) in OECM1 cells; format: cell-based; conditions: for OECM1 viability / proliferation: 0.1, 1, 2 and 5 μg/ml, normalized to control
From the text: (§1) In specific examples, colorimetric assays can be used to assess cellular viability and proliferation of cell cultures, such as MTT, WST-1, and resazurin assays. See, e.g., Präbst et al., Methods Mol Biol. 2017:1601:1-17.
(§2) Various cell lines were exposed to PGDHC, including human gingival squamous carcinoma cells (OECM1), tongue squamous carcinoma cells (SCC4, SCC9), and healthy human gingival epithelial control cells (OBA9) in vitro.
(§3) To elucidate the effects of C16:0 and dh-C16:0 on oral squamous cell carcinoma, the ability of exogenous C16:0 and dh-C16:0 to modulate proliferation and ceramidase expression in OECM1 cells was determined. […] In contrast, no effect of C16:0 on ASAH1 and ACER2 mRNA expressions.
(§4) LCL521 is a dose-dependent acid ceramidase inhibitor. Comparison of the concentration-dependent effects of an acid ceramidase inhibitor, LCL521 (MedChemExpress®), and the bacterial-isolated a15:0-15:0PE phospholipid on the viability of healthy human epithelial, OBA9, and oral squamous cancer cell lines, OECM1 and SCC9, in vitro was evaluated. […] (FIG. 15A). […] (FIG. 15B).

[2] = test system: healthy human gingival epithelial control cells (OBA9); test: Cell viability/proliferation assay (WST-1) in healthy OBA9 cells; format: cell-based
From the text: as §1, §2, §4

[3] = test system: tongue squamous carcinoma cells (SCC9); test: Cell viability/proliferation assay (WST-1) in SCC9 cells; format: cell-based, human
From the text: as §1, §2, §4

ASAH1 [4] = test: ASAH1 (acid ceramidase) mRNA expression in OECM1 cells; format: cell-based, human; conditions: for expression of ASAH1 in OECM1 cells: 1 μg/ml, compared to sham control
From the text: (§5) Exemplary ceramidase genes, the expression of which can be measured to determine upregulation, include but are not limited to ASAH1, ACER2, and ACER3. A determination of ceramidase gene expression can be made according to methods available to one of skill in the art. For example, Yamada et al., J Cell Mol Med. 2023 May;27(9):1290-1295 and Kyriakou et al., Int. J. Mol. Sci. 2020, 21(5):1607 describes measuring the mRNA levels of ceramidases by RNA extraction and RT-PCR.
(§6) To test this hypothesis, it was first determined whether artificially elevated intracellular concentration of ceramide species affect the expression of acid/ASAH1, neutral/ASAH2, and alkaline1-3/ACER1-3 ceramidases in oral squamous cell carcinoma cells using C6-ceramide. Applicant previously reported that C6-ceramide serves as a positive control for PGDHC-mediated inflammation (Kanzaki et al., Biochim Biophys Acta Mol Cell Biol Lipids. 2017 May;1862(5):452-462) and promotes the intracellular accumulation of ceramide in cancer cells. See, e.g., Zhang et al., Front Plant Sci. 2020 Feb. 26:11:145, Zhai et al., Biochem Biophys Res Commun. 2015 December;468(1-2):274-80, Wilhelm et al., Cancers (Basel). 2021 Jan. 13;13(2):270, and Chapman et al., Biochem Pharmacol. 2010 Aug. 1;80(3):308-15.
(§7) Next, the effect of PGDHC on ceramidase gene expression was determined. OECM1 and SCC4 cells were exposed to 0.1 or 1 μg/ml of PGDHC. The mRNA levels of ceramidases were then measured following PGDHC exposure. PGDHC inhibited the expression of ASAH1 and ACER2 mRNAs in OECM1 (FIG. 8). […] See, e.g., Vijayan et al., J Adv Res. 2023 Dec. 21:S2090-1232(23)00403-4, Doan et al., Oncotarget. 2017 Nov. 7;8(68):112662-112674., Lai et al., Sci Rep. 2021 May 27;11(1):11221, Liu et al., Cancer Sci. 2020 July;111(7):2259-2274., and Liu et al., Front Genet. 2023 Mar. 1:14:1148437.
as §3
(§8) We evaluated the effect of a15:0-i15:0 phosphoethanolamine phospholipid (FIG. 1D), isolated from the gut bacteria Akkermansia muciniphila on OSCC cells.

ACER3 = ACER3 mRNA expression in OECM1 cells; format: cell-based, human; conditions: 1 μg/ml, compared to sham control
From the text: as §5
as §6, with “13;13(2):270, and Chapman et al., Biochem Pharmacol. 2010 Aug. 1;80(3):308-15.” left out
To elucidate the effects of C16:0 and dh-C16:0 on oral squamous cell carcinoma, the ability of exogenous C16:0 and dh-C16:0 to modulate proliferation and ceramidase expression in OECM1 cells was determined. […]

ACER2 = ACER2 mRNA expression in OECM1 cells; format: cell-based, human; conditions: 1 μg/ml, compared to sham control
From the text: as §5, §6, §7, §3

acid ceramidase = test: Acid ceramidase level by confocal microscopy in SCC9 cells; format: cell-based, human
From the text: as §8

SCC9 cells = test: Untargeted metabolomic pathway analysis (LC/MS) in SCC9 cells; format: cell-based, human; conditions: 1 μg/ml for 6 h
From the text: The plots in FIGS. 16A and 16B display the enriched pathways identified in the analysis, with their corresponding significance levels represented on the x-axis. The significance threshold (p<0.05) is denoted by the dashed line. […] Additionally, the color of the dots represents the enrichment, which indicates the extent to which the metabolites in the pathway were clustered amongst the compounds with the most positive fold-changes (positive enrichments), the most negative fold-changes (negative enrichments), or uniformly distributed across high and low fold-change compounds (enrichment values near 0.0). […] Polar and lipid metabolites were analyzed with hydrophilic interaction chromatography (HILIC/MS) and liquid chromatography (LC/MS), respectively. Mass spectrometry analysis was completed with a mass range of 67-1500 Da with 1 scan/sec and a mass resolution of 120,000 in both positive and negative ionization mode. The MS/MS mass-spectrometry data were acquired in a data-dependent iterative fashion with a 1.3 m/z isolation window. Based upon this metabolomic analysis, phosphoglycerol dihydroceramide (PGDHC) isolated from Porphyromonas gingivalis inhibits metabolomic pathways essential for cell survival in oral squamous cell carcinoma cells (OSCC). […]
SCC9 were exposed to a15:0-i15:0PE (1 μg/ml) for 6 h in vitro. […] The significance threshold (p<0.05) is denoted by the grey dashed line. […] Additionally, the color of the dots represents the enrichment, which indicates the extent to which the metabolites in the pathway were clustered amongst the compounds with the most positive fold-changes (positive enrichments), the most negative fold-changes (negative enrichments), or uniformly distributed across high and low fold-change compounds (enrichment values near 0.0).

ASAH1 [5] = test: ASAH1 mRNA expression in SCC9 cells; format: cell-based, human; conditions: different concentrations of a15:0-i15:0PE
From the text: as §8

[6] = test system: human gingival squamous carcinoma cells (OECM1); conditions: Yamada et al. 2023; cited from earlier work
[7] = test system: ceramide and dihydroceramide in OECM1 cells; conditions: Yamada et al. 2023; cited from earlier work
ASAH1 [8] = conditions: Yamada et al. 2023; cited from earlier work
[9] = at concentrations lower than 1 μg/mL

Molecule: CCCCCCCCCCCCCC(=O)N[C@H](COC(=O)CN(C)C)[C@H](OC(=O)CN(C)C)c1ccc([N+](=O)[O-])cc1 [LCL521, reference compound]
- inhibition of viability of OECM1 ([1]; 10 μM): 20%
- inhibition of viability of OBA9 ([2]; 10 μM): over 50%
- inhibition of viability of SCC9 ([3]; 10 μM): 20%

Molecule: CCCCCCCCCCCCCCCC(=O)N[C@@H](CO)[C@H](O)CCCCCCCCCCCCCCC [dh-C16:0, Dihydroceramide C16:0]
- expression of ASAH1 in OECM1 cells (ASAH1 [4]): dramatically inhibits
- OECM1 viability / proliferation [1]: significantly inhibited OECM1 cells proliferation in a concentration-dependent manner
- expression of ACER3 in OECM1 cells (ACER3): dramatically inhibits
- expression of ACER2 in OECM1 cells (ACER2): dramatically inhibits

Molecule: CC[C@H](C)CCCCCCCCCCC(=O)OC[C@H](COP(=O)(O)OCCN)OC(=O)CCCCCCCCCCCC(C)C [a15:0-15:0PE, 1-(12S-methylmyristoyl)-2-(13-methylmyristoyl)-sn-glycero-3-phosphoethanolamine]
- levels of acid ceramidase in SCC9 cells (confocal, corrected total cell fluorescence) (acid ceramidase): decreased expression
- expression patterns of ASAH1 mRNA in OECM1 (ASAH1 [4]; different concentrations of a15:0-i15:0PE): dose-dependent decrease in expression
- viability of OECM1 cells [1, 9]: significantly inhibited
- amino fatty acid metabolism in SCC9 cells (SCC9 cells): inhibits
- arginine and proline metabolism in SCC9 cells (SCC9 cells): inhibits
- vitamin B6 metabolism in SCC9 cells (SCC9 cells): inhibits
- amino fatty acid metabolism in SCC9 cells (SCC9 cells; listed as a15:0-i15:0PE): diminished accumulation
- arginine and proline metabolism in SCC9 cells (SCC9 cells; listed as a15:0-i15:0PE): diminished accumulation
- vitamin B6 metabolism in SCC9 cells (SCC9 cells; listed as a15:0-i15:0PE): diminished accumulation
- expression patterns of ASAH1 mRNA in SCC9 (ASAH1 [5]): dose-dependent decrease in expression
- healthy OBA9 cell viability ([2]; concentrations of 0.1, 1.0 and 2.0 μM (FIG. 15B)): No significant effect
- viability of SCC9 cells [3, 9]: significantly inhibited

Molecule: CCCCCCCCCCCCC/C=C/[C@@H](O)[C@H](CO)NC(=O)CCCCC [C6-ceramide]
- expression of ASAH1 in OECM1 cells (ASAH1 [4]): inhibited expression
- OECM1 viability / proliferation [1]: inhibited OECM1 viability in a concentration-dependent manner
- expression of ACER3 in OECM1 cells (ACER3): inhibited expression
- expression of ACER2 in OECM1 cells (ACER2): inhibited expression

Molecule: CCCCCCCCCCCCC/C=C/[C@@H](O)[C@H](CO)NC(=O)CCCCCCCCCCCCCCC [C16:0, C16:0 ceramide]
- expression of ASAH1 in OECM1 cells (ASAH1 [4]): no effect
- expression of ACER2 in OECM1 cells (ACER2): no effect

Molecule: phosphoethanolamine dihydroceramide [PEDHC]
- proliferation of OECM1 cells [6]: inhibited the proliferation
- accumulation of antiproliferative ceramides in OECM1 cells [7]: elevated accumulation
- ASAH1 (acid ceramidase) expression in OECM1 cells (ASAH1 [8]): inhibition; also recorded: downregulation
